From publication PMC3575409, “Identification of a Novel Protein-Protein Interaction Motif Mediating Interaction of GPCR-Associated Sorting Proteins with G Protein-Coupled Receptors” (PLoS ONE, 2013)
“Also recorded” adds a separate entry of the source.

Tests used:
[1] = target: T1, binding of full-length ADRB2 to the central domain of GASP-1 (Homo sapiens, UniProt P07550); assay: SPR competition, ADRB2 / central domain of GASP-1; conditions: 1.1 µM ADRB2, GASP peptide 250 µM, control peptide up to 250 µM
T1 construct: Both ADRB2 and CNR2 full-length receptors were produced in P. pastoris and purified as previously described; implied only by the HisTrap purification; made in house; host or cells: ADRB2: Pichia pastoris; GST-GASP-1(380-1073): E. coli BL21
Procedure: (§1) The human ADRB2 and CNR2 receptors were produced using the P. pastoris expression system as previously described, [16]. After methanol-induced receptor expression, cells were washed with PBS pH 7.0 and resuspended in ice-cold buffer A (50 mM Tris-HCl pH 7.4, 500 mM NaCl, 10% glycerol, 5 mM EDTA, 1 mM PMSF, 2 mM DDT). Cells were then lysed with two cycles of 20 s shaking and 20 s cooling on ice using 0.5 mm glass beads in a FastPrep 24 device. Unbroken cells and cell debris were removed by centrifugation (3000 g, 5 min, 4°C) and the membrane fraction from the supernatant was pelleted by ultracentrifugation (100,000 g, 45 min, 4°C). Membranes were resuspended in buffer B (50 mM Tris-HCl pH 7.4, 500 mM NaCl, 10% glycerol, 1 mM PMSF, 2 mM DTT) using a Dounce homogenizer, and then successively washed with urea (buffer B with 4 M urea) and NaOH (buffer B with 10 mM NaOH), and ultracentrifuged (100,000 g, 45 min, 4°C). Finally membranes were resuspended in buffer B and quantified with the bicinchoninic acid (BCA) method (Pierce). […]
(§2) The binding curves were double referenced by (i) subtraction of the signal from the GST captured flow cell from the signal of the flow cell with captured central domain of GASP-1 and (ii) subtraction of the appropriate blank injection from the receptor injections with or without peptide. […] Endpoint responses were read 20 s after injection end. […]

[2] = target: T2, binding of full-length CNR2 to the central domain of GASP-1 (Homo sapiens, UniProt P34972); assay: SPR competition, CNR2 / central domain of GASP-1; conditions: 0.30 µM CNR2, GASP peptide 250 µM, control peptide up to 250 µM
T2 construct: Both ADRB2 and CNR2 full-length receptors were produced in P. pastoris and purified as previously described; implied only by the HisTrap purification; made in house; host or cells: CNR2: Pichia pastoris; GST-GASP-1(380-1073): E. coli BL21
Procedure: as §1, §2

[3] = tested on: interaction between GASP-2 and GST-fused ADRB1 C-tail; assay: GST-pull down competition, GASP-2 / ADRB1 C-tail; type: binding
Procedure: (§3) GST-fusion proteins were immobilized on glutathione-coupled Sepharose beads (GE Healthcare) for 1 h at 4°C and incubated with [^35S]-labelled in vitro translated GASP proteins or their truncated or mutated forms in ice-cold binding buffer containing: 20 mM Tris-HCl pH 7.4, 150 mM NaCl, 1 mM EDTA, 1 mM DTT, 10% glycerol and 1% Triton X-100. The mixture was incubated for 1 h at 4°C with gentle rocking. The beads were washed five times with the same ice-cold buffer, resuspended in 30 µl SDS-PAGE sample buffer, incubated 10 min at 65°C, and pelleted for 60 s at 3000 g. The supernatants were then analyzed by SDS-PAGE, the gels were stained with Coomassie blue to visualize GST-fusion proteins, dried and analyzed using a Phosphor-imager (Personal Molecular Imager FX, Biorad) to visualize [^35S]-labelled GASPs. Quantification was performed with the Quantity One software (Biorad). GST-pull down quantification data were analyzed using GraphPad Prism 4.03 (GraphPad Software). Quantifications presented are means of at least three independent experiments.
(§4) GASP peptide or its corresponding scrambled version was incubated with GST-fused proteins and [^35S]-labelled GASPs and the binding was analyzed as described for the GST-pull down assay. […]

[4] = tested on: interaction between GASP-7 and GST-fused ADRB1 C-tail; assay: GST-pull down competition, GASP-7 / ADRB1 C-tail; type: binding; conditions: 150 µM peptide
Procedure: as §3, §4

[5] = tested on: interaction between GASP-1 and GST-fused ADRB1 C-tail; assay: GST-pull down competition, GASP-1 / ADRB1 C-tail; type: binding; conditions: 150 µM peptide
Procedure: as §3, §4

T2 sequence (P34972 whole entry, the tested form may be a part): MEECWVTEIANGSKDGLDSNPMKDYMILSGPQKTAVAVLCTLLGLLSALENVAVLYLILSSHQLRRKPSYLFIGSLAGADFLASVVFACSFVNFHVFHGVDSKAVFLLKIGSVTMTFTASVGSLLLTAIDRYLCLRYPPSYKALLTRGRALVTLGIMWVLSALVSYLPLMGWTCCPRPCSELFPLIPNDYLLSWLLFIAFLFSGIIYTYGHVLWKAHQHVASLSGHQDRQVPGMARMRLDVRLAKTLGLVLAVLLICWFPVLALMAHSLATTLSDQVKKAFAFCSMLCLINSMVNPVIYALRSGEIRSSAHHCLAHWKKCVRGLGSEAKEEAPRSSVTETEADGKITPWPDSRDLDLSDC

Row | Sequence | effect on binding of ADRB2 to the central domain of GASP-1 [1] | effect on binding of CNR2 to the central domain of GASP-1 [2] | effect on the interaction between GASP-2 and ADRB1 C-tail ([3]; 150 µM peptide) | effect on the interaction between GASP-2 and ADRB1 C-tail ([3]; dose-effect experiment, peptide 1 to 250 µM (scrambled: highest dose)) | effect on the interaction between GASP-7 and ADRB1 C-tail [4] | effect on the interaction between GASP-1 and ADRB1 C-tail [5]
1 | RVKQEPRFEEEVIIGAAAAAEKEA [control peptide, control peptide where the conserved SWFW motif was changed to AAAA] | only had a minor effect on the interaction | only had a minor effect on the interaction |  |  |  | 
2 | AVEWIQEVFWEKRKPEEFGIERAS [scrambled peptide, scrambled version of GASP peptide] |  |  | did not | did not affect this interaction; also recorded: no significant effect | did not | did not
